According to PMC6272674, “Selected Compounds Structurally Related to Acyclic Sesquiterpenoids and Their Antibacterial and Cytotoxic Activity” (Molecules, 2015):
≈ marks a conversion by molar mass, not a printed value.

Tests used:
[1] = test system: Enterococcus faecium ATCC 35667; experiment: Micro-dilution broth MIC, Enterococcus faecium; format: cell-based; conditions: ATCC35667, 24 h, 37 °C, read-out: Minimum Inhibitory Concentrations MIC
Experimental: (§1) The standard strains, Gram-positive: Staphylococcus aureus ATCC […], Enterococcus faecalis Van B ATCC 51299 and Enterococcus faecium VA sensitive ATCC 35667, and Gram-negative: Escherichia coli ATCC 25922, Klebsiella pneumoniae ATCC 700603 and Acinetobacter baumannii ATCC 19606, came from a collection of the Environmental Biology Department, Medical University of Łódź. The standard strains were cultivated in Columbia Agar Medium and incubated at 37 °C for 24 h in aerobic conditions.
(§2) The antibacterial activity of the racemates and E/Z-mixtures was investigated using the micro‑dilution broth method. The compounds were diluted in ethanol. This stock solution was mixed with 100 µL of Mueller-Hinton broth to obtain concentrations from 10 µg/mL to 80 µg/mL. The mixtures were then transferred to 96-well microtiter plates. The microbial suspension was standardised to a cell density of 1.5 × 10^8 CFU, which was equal to an optical density of 0.5 on the Mc Farland scale by a bio-Merieux densitometer; one well was filled with broth only to act as a control for strain growth.

[2] = test system: Acinetobacter baumannii ATCC 19606; experiment: Micro-dilution broth MIC, Acinetobacter baumannii; format: cell-based; conditions: ATCC19606, 24 h, 37 °C, read-out: Minimum Inhibitory Concentrations MIC
Experimental: as §1, §2

Keratinocytes HaCaT = experiment: MTT viability, HaCaT; format: cell-based, human; conditions: Homo sapiens, 24 h, range 10–1000 µM, read-out: half maximal inhibitory concentration (IC50), interpolated
Experimental: (§3) Cell lines and in vitro culture conditions: The human promyelocytic leukaemia cell line HL-60 was obtained from the Centre of Molecular and Macromolecular Biology in Łódź, Poland and was cultured in RPMI 1640 medium with 20% heat-inactivated fetal bovine serum (FBS). To reduce spontaneous differentiation, the cells were never allowed to exceed a concentration of 1.0 × 10^6 cells/mL. The human keratinocyte cell line HaCaT was obtained from Cell Lines Service, Germany (CLS) and cultured in DMEM medium with 10% FBS. Human colorectal adenocarcinoma HT29 and normal epithelial IEC-6 cell lines (from ATCC) were cultured in DMEM medium with 10% FBS. The human skin melanoma cell line MEWO (from CLS) was cultured in DMEM:F12 supplemented with 2 mM L-glutamine and 10% FBS. Human fibroblasts from gingiva isolated from original tissue, HFIB-G, (from Provitro) were cultured in Quantum 333 (from Immunique). The media were supplemented with 100 U/mL penicillin and 100 µg/mL streptomycin; all media components were obtained from Life Technologies. The adherent cell lines used in the studies were seeded on microplates before they exceeded 80% of confluence. Cells were cultured at 37 °C in 5% CO2 air atmosphere/95% air atmosphere.
(§4) Cytotoxic activity: The cells (the density for HL-60 was 0.5 × 10^4 cells/100 µL, otherwise it was 1 × 10^4 cells/100 µL) were plated into each well of 96-well microtiter plates and, after their attachment to the plate surface, treated with 10 µL of the indicated concentrations of compounds for 24 h. Viability was determined by MTT assay following the treatment. MTT (3-[4.5-dimethylthiazol-2-yl]-2.5-diphenyltetrazolium bromide; Sigma, St. Louis, MO, USA) solution was added to each well and incubated for another 4 h. The resulting MTT-formazan product was dissolved by the addition of lysis buffer (20% SDS and 50% DMF). The amount of formazan was determined by measuring absorbance at 570 nm with a Synergy 2 microplate reader (BioTek, Winooski, VT, USA) operated by the Gen5 program. The experiments were conducted three times with five replications. The results are expressed as an optical density ratio of the treatment to control. All data are presented as means ± SD.

[3] = test system: Klebsiella pneumoniae ATCC 700603; experiment: Micro-dilution broth MIC, Klebsiella pneumoniae; format: cell-based; conditions: ATCC700603, 24 h, 37 °C, read-out: Minimum Inhibitory Concentrations MIC
Experimental: as §1, §2

[4] = test system: Promyelocytic Leukaemia HL-60; experiment: MTT viability, HL-60; format: cell-based, human; conditions: Homo sapiens, HL-60, 24 h, HL-60, MTT, range 10–1000 µM, read-out: half maximal inhibitory concentration (IC50), interpolated
Experimental: as §3, §4

[5] = test system: Escherichia coli ATCC 25922; experiment: Micro-dilution broth MIC, Escherichia coli; format: cell-based; conditions: ATCC25922, 24 h, 37 °C, read-out: Minimum Inhibitory Concentrations MIC
Experimental: as §1, §2

Fibroblasts HFIG = experiment: MTT viability, HFIG; format: cell-based, human; conditions: Homo sapiens, Fibroblast, 24 h, range 10–1000 µM, read-out: half maximal inhibitory concentration (IC50), interpolated
Experimental: as §3, §4

MTT viability, HT29 = format: cell-based, human; conditions: human, HT29 colorectal adenocarcinoma cells, 1000 µM (IC50 exceeded 1000 µM), read-out: viability ± standard deviation at 1000 µM
Experimental: as §3, §4

Malignant Melanoma MEWO = experiment: MTT viability, MEWO; format: cell-based, human; conditions: Homo sapiens, 24 h, range 10–1000 µM, read-out: half maximal inhibitory concentration (IC50), interpolated
Experimental: as §3, §4

[6] = test system: Enterococcus faecalis ATCC 51299; experiment: Micro-dilution broth MIC, Enterococcus faecalis; format: cell-based; conditions: ATCC51299, 24 h, 37 °C, read-out: Minimum Inhibitory Concentrations MIC
Experimental: as §1, §2

[7] = test system: Staphylococcus aureus ATCC 43300; experiment: Micro-dilution broth MIC, Staphylococcus aureus; format: cell-based; conditions: ATCC43300, 24 h, 37 °C, read-out: Minimum Inhibitory Concentrations MIC
Experimental: as §1, §2

MTT viability, IEC6 = format: cell-based; conditions: rat, IEC-6 small intestine epithelial cells, 1000 µM (IC50 exceeded 1000 µM), read-out: viability ± standard deviation at 1000 µM
Experimental: as §3, §4

SMILES	MIC [1]	MIC [2]	MIC [3]	IC50 [4]	MIC [5]	IC50 (Malignant Melanoma MEWO)	MIC [6]	MIC [7]	IC50 (Keratinocytes HaCaT)	IC50 (Fibroblasts HFIG)	viability at 24 h, 1000 µM (MTT viability, HT29)	viability at 24 h, 1000 µM (MTT viability, IEC6)
CC(C)=CCCC(C)C(C)=CCCC(C)=CCO (stereo not drawn) [Compound 24, 3,7,8,12-Tetramethyltrideca-2,6,11-trien-1-ol]	32 µg/mL (≈ 128 µM)	40 µg/mL (≈ 160 µM)	44 µg/mL (≈ 176 µM)	100 µM	52 µg/mL (≈ 208 µM)	512 µM	18 µg/mL (≈ 71.9 µM)	22 µg/mL (≈ 87.9 µM)	686 µM	390 µM	78%	85%
CC(C)=CCCC(C)CC(C)=CCO (stereo not drawn) [Compound 27, 3,5,9-Trimethyldeca-2,8-dien-1-ol]	18 µg/mL (≈ 91.7 µM)	34 µg/mL (≈ 173 µM)	18 µg/mL (≈ 91.7 µM)	143 µM	36 µg/mL (≈ 183 µM)	456 µM	26 µg/mL (≈ 132 µM)	28 µg/mL (≈ 143 µM)	687 µM	489 µM	106%	93%
CC(C)=CCCC(C)CCC(C)=CCO (stereo not drawn) [Compound 28, 3,6,10-Trimethylundeca-2,9-dien-1-ol]	16 µg/mL (≈ 76.1 µM)	18 µg/mL (≈ 85.6 µM)	16 µg/mL (≈ 76.1 µM)	198 µM	28 µg/mL (≈ 133 µM)	512 µM	18 µg/mL (≈ 85.6 µM)	26 µg/mL (≈ 124 µM)	698 µM	687 µM	93%	101%
CC(C)=CCCC(C)CC(C)C(C)=CCO (stereo not drawn) [Compound 29, 3,4,6,10-Tetramethylundeca-2,9-dien-1-ol]	18 µg/mL (≈ 80.2 µM)	32 µg/mL (≈ 143 µM)	36 µg/mL (≈ 160 µM)	252 µM	38 µg/mL (≈ 169 µM)	587 µM	22 µg/mL (≈ 98 µM)	28 µg/mL (≈ 125 µM)	946 µM	756 µM	82%	103%
CC(C)=CCCC(C)=CCCC(C)=CC=O [Farnesal (3), farnesal, reference compound]	36 µg/mL (≈ 163 µM)	36 µg/mL (≈ 163 µM)	44 µg/mL (≈ 200 µM)	363 µM	46 µg/mL (≈ 209 µM)	467 µM	22 µg/mL (≈ 99.8 µM)	24 µg/mL (≈ 109 µM)	702 µM	650 µM	110%	85%

The remaining molecules from weak to strong by MIC [1], led by results:

MIC [1]	MIC [2]	MIC [3]	IC50 [4]	MIC [5]	IC50 (Malignant Melanoma MEWO)	MIC [6]	MIC [7]	SMILES	IC50 (Keratinocytes HaCaT)	IC50 (Fibroblasts HFIG)	viability at 24 h, 1000 µM (MTT viability, HT29)	viability at 24 h, 1000 µM (MTT viability, IEC6)
36 µg/mL (≈ 143 µM)	38 µg/mL (≈ 151 µM)	42 µg/mL (≈ 166 µM)	145 µM	48 µg/mL (≈ 190 µM)	495 µM	30 µg/mL (≈ 119 µM)	32 µg/mL (≈ 127 µM)	CC(=CCO)CCC=C(C)C(C)CCCC(C)C (stereo not drawn) [Compound 26, 3,7,8,12-Tetramethyltrideca-2,6-dien-1-ol]	620 µM	531 µM	96%	76%
34 µg/mL (≈ 144 µM)	44 µg/mL (≈ 186 µM)	48 µg/mL (≈ 203 µM)	167 µM	50 µg/mL (≈ 212 µM)	500 µM	32 µg/mL (≈ 135 µM)	28 µg/mL (≈ 118 µM)	CC(C)=CCCC(C)/C=C/CCC(C)=CCO (stereo not drawn) [Compound 25, (6E)-3,8,12-Trimethyltrideca-2,6,11-trien-1-ol]	667 µM	454 µM	108%	82%
20 µg/mL	22 µg/mL	18 µg/mL	278 µM	28 µg/mL	800 µM	22 µg/mL	28 µg/mL	CC(=O)OCC=C(C)CCC=C(C)C(C)CCCC(C)C (stereo not drawn) [Compound 32, 3,7,8,12-Tetramethyltrideca-2,6-dien-1-yl acetate]	950 µM	980 µM	103%	92%
